Experimental data published in the NIST ThermoML archive (doi:10.1021/je800930v).
± gives the expanded uncertainty stated by the source.

Experiment: xn = mol fraction of the nth substance listed
Details: 101 kPa, Liquid

CCCCO [butan-1-ol] + O=C(O)C1CC1
x2 = 0
Details	mass density [kg/m3]	viscosity [mPa·s]
298.15 K	805.8 ± 0.46	2.588 ± 0.03
308.15 K	798.08 ± 0.47	1.991 ± 0.023
318.15 K	790.22 ± 0.48	1.555 ± 0.019
328.15 K	782.17 ± 0.5	1.228 ± 0.015
338.15 K	773.88 ± 0.51	0.981 ± 0.013

O=C(O)C1CC1 [cyclopropanecarboxylic acid] + CCCCO
Details	mass density, 298.15 K [kg/m3]	mass density, 308.15 K [kg/m3]	mass density, 318.15 K [kg/m3]	mass density, 328.15 K [kg/m3]	mass density, 338.15 K [kg/m3]	viscosity, 298.15 K [mPa·s]	viscosity, 308.15 K [mPa·s]	viscosity, 318.15 K [mPa·s]	viscosity, 328.15 K [mPa·s]	viscosity, 338.15 K [mPa·s]
x1 = 0.1	831.84 ± 0.42	823.84 ± 0.44	815.72 ± 0.45	807.43 ± 0.46	798.92 ± 0.47	2.672 ± 0.031	2.064 ± 0.024	1.615 ± 0.019	1.289 ± 0.016	1.031 ± 0.013
x1 = 0.2	858.24 ± 0.39	850.01 ± 0.4	841.64 ± 0.41	833.15 ± 0.42	824.46 ± 0.44	2.782 ± 0.032	2.145 ± 0.025	1.689 ± 0.02	1.339 ± 0.016	1.081 ± 0.014
x1 = 0.3	884.97 ± 0.35	876.51 ± 0.36	867.95 ± 0.37	859.26 ± 0.38	850.39 ± 0.4	2.936 ± 0.034	2.26 ± 0.026	1.779 ± 0.021	1.416 ± 0.017	1.145 ± 0.014
x1 = 0.4	912.03 ± 0.31	903.36 ± 0.32	894.6 ± 0.33	885.74 ± 0.35	876.73 ± 0.36	3.091 ± 0.035	2.374 ± 0.028	1.863 ± 0.022	1.488 ± 0.018	1.207 ± 0.015
x1 = 0.5	939.3 ± 0.27	930.44 ± 0.28	921.51 ± 0.29	912.47 ± 0.31	903.33 ± 0.32	3.217 ± 0.037	2.475 ± 0.029	1.944 ± 0.023	1.556 ± 0.019	1.266 ± 0.016
x1 = 0.6	966.97 ± 0.23	957.92 ± 0.24	948.81 ± 0.25	939.61 ± 0.27	930.34 ± 0.28	3.319 ± 0.038	2.558 ± 0.03	2.016 ± 0.024	1.62 ± 0.019	1.324 ± 0.016
x1 = 0.6987	994.72 ± 0.2	985.5 ± 0.21	976.22 ± 0.22	966.86 ± 0.23	957.46 ± 0.24	3.386 ± 0.039	2.616 ± 0.03	2.079 ± 0.024	1.671 ± 0.02	1.37 ± 0.017
x1 = 0.7996	1023.6 ± 0.23	1014.15 ± 0.21	1004.68 ± 0.2	995.17 ± 0.2	985.6 ± 0.21	3.401 ± 0.039	2.634 ± 0.03	2.11 ± 0.025	1.708 ± 0.02	1.41 ± 0.017
x1 = 0.9	1053 ± 0.27	1043.31 ± 0.25	1033.63 ± 0.24	1023.94 ± 0.23	1014.21 ± 0.21	3.362 ± 0.038	2.628 ± 0.03	2.109 ± 0.025	1.723 ± 0.021	1.432 ± 0.017
x1 = 1	1082.92 ± 0.31	1072.97 ± 0.3	1063.04 ± 0.28	1053.12 ± 0.26	1043.2 ± 0.25	3.306 ± 0.038	2.603 ± 0.03	2.102 ± 0.025	1.739 ± 0.021	1.459 ± 0.018

O=C(O)C1CC1 [cyclopropanecarboxylic acid] + CCCO
Details	mass density, 298.15 K [kg/m3]	mass density, 308.15 K [kg/m3]	mass density, 318.15 K [kg/m3]	mass density, 328.15 K [kg/m3]	mass density, 338.15 K [kg/m3]	viscosity, 298.15 K [mPa·s]	viscosity, 308.15 K [mPa·s]	viscosity, 318.15 K [mPa·s]	viscosity, 328.15 K [mPa·s]	viscosity, 338.15 K [mPa·s]
x1 = 0.1	832.12 ± 0.43	823.73 ± 0.44	815.19 ± 0.45	806.46 ± 0.46	797.48 ± 0.48	2.118 ± 0.025	1.667 ± 0.02	1.325 ± 0.016	1.068 ± 0.014	0.87 ± 0.012
x1 = 0.2	863.75 ± 0.38	855.12 ± 0.39	846.35 ± 0.4	837.42 ± 0.42	828.26 ± 0.43	2.33 ± 0.027	1.833 ± 0.022	1.451 ± 0.018	1.169 ± 0.015	0.953 ± 0.013
x1 = 0.3	894.25 ± 0.33	885.41 ± 0.35	876.46 ± 0.36	867.36 ± 0.37	858.07 ± 0.39	2.568 ± 0.03	2.002 ± 0.024	1.583 ± 0.019	1.276 ± 0.016	1.041 ± 0.013
x1 = 0.4138	927.62 ± 0.29	918.58 ± 0.3	909.45 ± 0.31	900.17 ± 0.33	890.75 ± 0.34	2.82 ± 0.032	2.19 ± 0.026	1.733 ± 0.021	1.396 ± 0.017	1.141 ± 0.014
x1 = 0.5001	952.13 ± 0.25	942.95 ± 0.26	933.7 ± 0.28	924.34 ± 0.29	914.85 ± 0.3	2.988 ± 0.034	2.317 ± 0.027	1.834 ± 0.022	1.481 ± 0.018	1.211 ± 0.015
x1 = 0.6	979.77 ± 0.22	970.45 ± 0.23	961.07 ± 0.24	951.61 ± 0.25	942.03 ± 0.26	3.14 ± 0.036	2.437 ± 0.028	1.929 ± 0.023	1.56 ± 0.019	1.282 ± 0.016
x1 = 0.7	1006.34 ± 0.2	996.88 ± 0.2	987.37 ± 0.21	977.81 ± 0.22	968.16 ± 0.23	3.235 ± 0.037	2.517 ± 0.029	2.002 ± 0.024	1.626 ± 0.019	1.342 ± 0.016
x1 = 0.8	1032.24 ± 0.24	1022.8 ± 0.22	–	1003.51 ± 0.2	993.78 ± 0.2	3.299 ± 0.038	2.574 ± 0.03	2.06 ± 0.024	1.678 ± 0.02	1.392 ± 0.017
x1 = 0.9	1057.82 ± 0.27	1048.15 ± 0.26	1038.38 ± 0.24	1028.6 ± 0.23	1018.78 ± 0.22	3.316 ± 0.038	2.617 ± 0.03	2.092 ± 0.025	1.713 ± 0.02	1.429 ± 0.017
x1 = 1	1082.92 ± 0.31	1072.97 ± 0.3	1063.04 ± 0.28	1053.12 ± 0.26	1043.2 ± 0.25	3.306 ± 0.038	2.603 ± 0.03	2.102 ± 0.025	1.739 ± 0.021	1.459 ± 0.018

O=C(O)C1CC1 [cyclopropanecarboxylic acid] + CCO
Details	mass density, 298.15 K [kg/m3]	mass density, 308.15 K [kg/m3]	mass density, 318.15 K [kg/m3]	mass density, 328.15 K [kg/m3]	viscosity, 298.15 K [mPa·s]	viscosity, 308.15 K [mPa·s]	viscosity, 318.15 K [mPa·s]	viscosity, 328.15 K [mPa·s]
x1 = 0.0787	820.26 ± 0.45	811.57 ± 0.46	802.61 ± 0.47	793.34 ± 0.49	1.272 ± 0.016	1.043 ± 0.013	0.865 ± 0.012	0.723 ± 0.011
x1 = 0.161	853.87 ± 0.4	844.96 ± 0.41	835.92 ± 0.42	826.69 ± 0.44	1.469 ± 0.018	1.201 ± 0.015	0.99 ± 0.013	0.825 ± 0.011
x1 = 0.2475	886.51 ± 0.35	877.38 ± 0.36	868.1 ± 0.37	858.68 ± 0.39	1.711 ± 0.02	1.388 ± 0.017	1.136 ± 0.014	0.947 ± 0.013
x1 = 0.3384	917.74 ± 0.3	908.48 ± 0.31	899.1 ± 0.33	889.59 ± 0.34	1.985 ± 0.023	1.596 ± 0.019	1.299 ± 0.016	1.073 ± 0.014
x1 = 0.4341	947.8 ± 0.26	938.44 ± 0.27	928.98 ± 0.28	919.39 ± 0.3	2.279 ± 0.027	1.814 ± 0.022	1.47 ± 0.018	1.208 ± 0.015
x1 = 0.535	976.75 ± 0.22	967.28 ± 0.23	957.74 ± 0.24	948.09 ± 0.26	2.562 ± 0.03	2.029 ± 0.024	1.636 ± 0.02	1.342 ± 0.016
x1 = 0.6415	1004.67 ± 0.2	995.1 ± 0.2	985.47 ± 0.21	975.77 ± 0.22	2.818 ± 0.032	2.225 ± 0.026	1.789 ± 0.021	1.467 ± 0.018
x1 = 0.7542	1031.56 ± 0.23	1021.89 ± 0.22	1012.17 ± 0.21	1002.41 ± 0.2	3.035 ± 0.035	2.391 ± 0.028	1.895 ± 0.022	1.557 ± 0.019
x1 = 0.8734	1057.73 ± 0.27	1047.94 ± 0.26	1038.12 ± 0.24	1028.3 ± 0.23	3.204 ± 0.037	2.532 ± 0.029	2.024 ± 0.024	1.674 ± 0.02
x1 = 1	1082.92 ± 0.31	1072.97 ± 0.3	1063.04 ± 0.28	1053.12 ± 0.26	3.306 ± 0.038	2.603 ± 0.03	2.102 ± 0.025	1.739 ± 0.021
